By IC50 is commonly meant the concentration that gives 50% inhibition. Low values mean higher potency, high ones lower potency.

This is an account of results in EP4556004A1 (priority 2023, dated 2025).

Where only a bound is given, the exact number is not on record here.

In the first test the test system is HCoV-229E. The test can be described thus: microbe, parasite or virus in culture. Format: cell-based, Human coronavirus 229E.
Settings: not given
`CC(C)=CCc1c(O)cc(O)c(C(=O)C(C)C)c1O` [AH56-F3, 2-methyl-1-(2,4,6-trihydroxy-3-(3-methylbut-2-en-1-yl)phenyl)propan-1-one] gave an IC50 of over 24 µM.

For `CC(C)=CCc1c(O)cc(O)c(C(=O)C(C)C)c1O` [AH62-F2, 2-methyl-1-(2,4,6-trihydroxy-3-(3-methylbut-2-en-1-yl)phenyl)propan-1-one], the IC50 was under 3 µM.

Regarding `CC(C)=CCC1=C(O)C(C(=O)C(C)C)=C(O)C(CC=C(C)C)(CC=C(C)C)C1=O` [Colupulone, Co-lupulone], the IC50 was under 3 µM.

Consider Ad-lupulone, for which the IC50 was under 12 µM.

The same test, now with this note: Human coronavirus 229E, Huh-7.
Compound `CC(C)=CCC1=C(O)C(CC=C(C)C)(CC=C(C)C)C(=O)C(C(=O)CC(C)C)=C1O` [AH6-F2, 3,5-dihydroxy-4,6,6-tris(3-methylbut-2-en-1-yl)-2-(3-methylbutanoyl)cyclohexa-2,4-dien-1-one] returned an IC50 of under 3 µM.

In turn, `CCC(C)C(=O)C1=C(O)C(CC=C(C)C)=C(O)C(CC=C(C)C)(CC=C(C)C)C1=O` (stereo not drawn) [AH8-F2, 3,5-dihydroxy-4,6,6-tris(3-methylbut-2-en-1-yl)-2-(2-methylbutanoyl)cyclohexa-2,4-dien-1-one] gave a concentration for half-maximal inhibition (IC50) of under 12 µM.

With `CCCC(=O)C1=C(O)C(CC=C(C)C)=C(O)C(CC=C(C)C)(CC=C(C)C)C1=O` [AH10-F2, 2-butyryl-3,5-dihydroxy-4,6,6-tris(3-methylbut-2-en-1-yl)cyclohexa-2,4-dien-1-one], the IC50 is under 3 µM.

Compound `CC(=O)C1=C(O)C(CC=C(C)C)=C(O)C(CC=C(C)C)(CC=C(C)C)C1=O` [AH16-F2, 2-acetyl-3,5-dihydroxy-4,6,6-tris(3-methylbut-2-en-1-yl)cyclohexa-2,4-dien-1-one] displayed an IC50 of under 12 µM.

As for `CCC(=O)C1=C(O)C(CC=C(C)C)=C(O)C(CC=C(C)C)(CC=C(C)C)C1=O` [AH17-F2, 3,5-dihydroxy-4,6,6-tris(3-methylbut-2-en-1-yl)-2-propionylcyclohexa-2,4-dien-1-one], the IC50 is over 24 µM.

On to `CCCCC(=O)C1=C(O)C(CC=C(C)C)=C(O)C(CC=C(C)C)(CC=C(C)C)C1=O` [AH18-F4, 3,5-dihydroxy-4,6,6-tris(3-methylbut-2-en-1-yl)-2-pentanoylcyclohexa-2,4-dien-1-one], for which the IC50 was under 12 µM.

`CC(C)=CCC1=C(O)C(CC=C(C)C)(CC=C(C)C)C(=O)C(C(=O)CCC(C)C)=C1O` [AH39-F1, 3,5-dihydroxy-4,6,6-tris(3-methylbut-2-en-1-yl)-2-(4-methylpentanoyl)cyclohexa-2,4-dien-1-one] showed an IC50 of under 12 µM.

On to `CCC(C)CC(=O)C1=C(O)C(CC=C(C)C)=C(O)C(CC=C(C)C)(CC=C(C)C)C1=O` (stereo not drawn) [AH40-F1, 3,5-dihydroxy-4,6,6-tris(3-methylbut-2-en-1-yl)-2-(3-methylpentanoyl)cyclohexa-2,4-dien-1-one], for which the IC50 was under 12 µM.

Take `CC(C)=CCC1=C(O)C(CC=C(C)C)(CC=C(C)C)C(=O)C(C(=O)C=Cc2ccccc2)=C1O` [AH41-F1, 2-cinnamoyl-3,5-dihydroxy-4,6,6-tris(3-methylbut-2-en-1-yl)cyclohexa-2,4-dien-1-one]: the IC50 is under 12 µM.

As to `CC(C)=CCC1=C(O)C(CC=C(C)C)(CC=C(C)C)C(=O)C(C(=O)/C=C/c2ccc(C(F)(F)F)cc2)=C1O` [AH44-F2, (E)-3,5-dihydroxy-4,6,6-tris(3-methylbut-2-en-1-yl)-2-(3-(4-(trifluoromethyl)phenyl)acryloyl)cyclohexa-2,4-dien-1-one], the IC50 is under 12 µM.

Regarding `CC(C)=CCC1=C(O)C(CC=C(C)C)(CC=C(C)C)C(=O)C(C(=O)c2ccccc2)=C1O` [AH47-F3, 2-benzoyl-3,5-dihydroxy-4,6,6-tris(3-methylbut-2-en-1-yl)cyclohexa-2,4-dien-1-one], the IC50 was under 12 µM.

`CC(=O)c1c(O)c(CC=C(C)C)c(O)c(CC=C(C)C)c1O` [AH52-F1, 1-(2,4,6-trihydroxy-3,5-bis-(3-methylbut-2-en-1-yl)phenyl)ethan-1-one] returned an IC50 of over 24 µM.

Compound `CC(C)=CCC1C(=O)C(C(=O)CC(C)C)=C(O)C=C1O` (stereo not drawn) [AH55-F3, 3,5-dihydroxy-6-(3-methylbut-2-en-1-yl)-2-(3-methylbutanoyl)cyclohexa-2,4-dien-1-one] returned an IC50 of under 24 µM.

`CCC(C)C(=O)c1c(O)cc(O)c(CC=C(C)C)c1O` (stereo not drawn) [AH57-F3, 2-methyl-1-(2,4,6-trihydroxy-3-(3-methylbut-2-en-1-yl)phenyl)butan-1-one] yielded an IC50 of under 24 µM.

The compound `CC(C)=CCC1(CC=C(C)C)C(=O)C(C(=O)C(C)C)=C(O)C(C(=O)C(C)C)=C1O` [AH66-F1, 1,1'-(2,4-dihydroxy-5,5-bis(3-methylbut-2-en-1-yl)-6-oxocyclohexa-1,3-diene-1,3-diyl)bis(2-methylpropan-1-one)] came in with an IC50 of under 12 µM.

`CC(C)=CCC1=C(O)C(CC=C(C)C)(CC=C(C)C)C(=O)C(C(=O)CCCCCNc2ccc([N+](=O)[O-])c3nonc23)=C1O` [AH77-F1, 3,5-dihydroxy-4,6,6-tris(3-methylbut-2-en-1-yl)-2-(6-((7-nitrobenzo[c][1,2,5]oxadiazol-4-yl)amino)hexanoyl)cyclohexa-2,4-dien-1-one] returned an IC50 of under 12 µM.

The compound `CC(C)=CCC1=C(O)[C@](O)(CC=C(C)C)C(=O)C(C(=O)C(C)C)=C1O` [Co-humulone, reference compound] came in with an IC50 of over 24 µM.

`CC(C)=CCC1=C(O)[C@](O)(CC=C(C)C)C(=O)C(C(=O)CC(C)C)=C1O` [Humulone, reference compound] yielded an IC50 of over 24 µM.

`CC(C)=CCC1(CC=C(C)C)C(=O)CC(O)=C(C(=O)CC(C)C)C1=O` [LB68-F3, 5-hydroxy-2,2-bis(3-methylbut-2-en-1-yl)-4-(3-methylbutanoyl)cyclohex-4-ene-1,3-dione] gave an IC50 of under 12 µM.

Consider `CC(C)=CCC1=C(O)C(CC=C(C)C)(CC=C(C)C)C(=O)C(C(=O)C(C)C)=C1O` [LB.70-F2, 3,5-dihydroxy-4,6,6-tris(3-methylbut-2-en-1-yl)-2-(2-methylpropanoyl)cyclo-hexa-2,4-dien-1-one], for which the IC50 is under 3 µM.

`CC(C)=CCC1=C(O)C(C(=O)CC(C)C)=C(O)C(CC=C(C)C)(CC=C(C)C)C1=O` [Lupulone] came in with an IC50 of under 3 µM.

A further test deals with HCoV-229E.
Test: not given
It is filed as cell-based, Human coronavirus 229E.
Settings: not given
Take `CC(C)=CCC1=C(O)C(C(=O)C(C)C)=C(O)C(CC=C(C)C)(CC=C(C)C)C1=O` [Colupulone, Co-lupulone]: the “reduction of HCoV-229E infection” value is reported as “able to reduce”.

For another test, the system named is SARS-CoV-2. The test is described as follows: SARS-CoV-2 antiviral assay in human primary epithelial nasal cells (Mucilair). It is filed as cell-based, severe acute respiratory syndrome coronavirus-2.
Settings: not given
Regarding `CC(C)=CCC1=C(O)C(C(=O)C(C)C)=C(O)C(CC=C(C)C)(CC=C(C)C)C1=O` [Colupulone, Co-lupulone], the “reduction of SARS-CoV-2 infection” value is “able to reduce”.
